Patent EP4640240A1, “PEPTIDE-BASED RADIOPHARMACEUTICALS FOR NON-INVASIVE IMAGING OF THE FUNCTIONAL LIVER RESERVE” (Medizinische Universität Innsbruck, priority 2024, dated 2025)
Like-named read-outs stand apart in the source and are kept apart here.

Key:
[1] = Stability in human blood serum (radio-HPLC); format: in vitro ADME; details: 37 °C
Description: Ligand stability in human blood serum (n = 2) and PBS (pH = 6.5) (n = 1) was determined for different time points (2 min, 30 min, 60 min, 120 min). Therefore, approx. 5 MBq of radioligand was added to 1 mL of fresh human serum at 37 °C or PBS at rt. At each given time point 100 µL of the mixture were transferred to a 1.5 mL Eppendorf tube containing 100 µL of acetonitrile. The vial was vortexed and centrifuged for 2 min at 14,000 1/min before 100 µL of the supernatant were diluted with 200 µL of water and injected into analytical radio-HPLC. The PBS solution was directly injected into the radio-HPLC. Ligand stability was determined by integrating the areas of the signals in the radio chromatogram in relation to the signal of the intact ligand.

[2] = Protein binding in human serum (MicroSpin G-50 columns); format: in vitro ADME; details: fresh human serum, 37 °C, n=3
Description: Protein binding was determined for different time points (2 min, 30 min, 60 min, 120 min) in triplicates using Sephadex MicroSpin G-50 columns (GE-Healthcare, Chicago, Illinois, USA). The columns were spun initially at 20,000 rcf for 1 min to remove the storage buffer. Then approx. 5 MBq of radioligand was added to 1 mL of fresh human serum and incubated at 37 °C. At each given timepoint 25 µL of the mixture was loaded on to the column, which was then spun at 20,000 rcf for 1 min. The activity content on the column (free radioligand) and in the filtrate (protein bound fraction) was quantified in a γ-counter.

[3] = Partition coefficient logD (n-octanol/PBS); format: physicochemical; details: n=6
Description: For determination of logarithmic partition coefficients (logD) n-Octanol (500 µL) and PBS (500 µL) were pipetted into eight 1.5 mL Protein Low-Bind Eppendorf tubes followed by addition of 300 kBq of labelled compound. The vials were vortexed for 5 min at 1,500 1/min and then centrifuged for 5 min at 20,000 rcf (Eppendorf Centrifuge 5424). Aliquots of 100 µL were taken out of each phase and the amount of activity was quantified in a γ-counter (Perkin Elmer 2480 Wizard2 3"; Waltham, Massachusetts, USA).

[4] = Biodistribution studies in BALB/c mice; format: in vivo; details: for tissue uptake at 10 min / tissue uptake at 0.5 h / tissue uptake at 1 h: female, mouse, iv, total radioactivity, healthy BALB/c mice, 0.1 nmol i.v.; for tissue uptake at 10 min: 10 min p.i.; for tissue uptake at 0.5 h: 30 min p.i.; for tissue uptake at 1 h: 60 min p.i.
Description: For biodistribution studies 6-week-old female BALB/c mice (n=3) were injected with 0.1 nmol (100 µL, approx. 1 MBq) of labelled compound via the lateral tail vein and sacrificed after 10, 30, or 60 min by cervical dislocation. The mice were dissected, blood and organs (spleen, pancreas, stomach, intestine, liver, kidney, heart, lung, muscle and bone) were weighed and their activity measured in a γ-counter. For blocking experiments, mice were co-injected with 27.7 µmοl N-acetylgalactose.

[5] = Blood, read-out: Biodistribution data, Blood
[6] = Femur, read-out: Biodistribution data, Femur
[7] = Heart, read-out: Biodistribution data, Heart
[8] = Intestine, read-out: Biodistribution data, Intestine
[9] = Kidneys, read-out: Biodistribution data, Kidneys
[10] = Liver, read-out: Biodistribution data, Liver
[11] = Lung, read-out: Biodistribution data, Lung
[12] = Muscle, read-out: Biodistribution data, Muscle
[13] = Pancreas, read-out: Biodistribution data, Pancreas
[14] = Spleen, read-out: Biodistribution data, Spleen
[15] = Stomach, read-out: Biodistribution data, Stomach

`NC(=O)CNC(=O)CNC(=O)[C@H](CCCCNC(=O)CCCCc1cn(C2O[C@H](CO)[C@H](O)[C@H](O)[C@H]2O)nn1)NC(=O)CNC(=O)CNC(=O)[C@H](CCCCNC(=O)CCCCc1cn(C2O[C@H](CO)[C@H](O)[C@H](O)[C@H]2O)nn1)NC(=O)CNC(=O)CNC(=O)[C@H](CCCCNC(=O)CCCCc1cn(C2O[C@H](CO)[C@H](O)[C@H](O)[C@H]2O)nn1)NC(=O)CCCNC(=O)CC[C@H](C(=O)O)N1CCN(CC(=O)O)CCN(CC(=O)O)CC1` (stereo partly shown) [[68Ga]Ga-TriLysan, metal not drawn] gave a remaining at 2 min ([1]; 2 min, n=2, read-out: Serum stability (% of intact ligand)) of 99.9%, a remaining at 0.5 h ([1]; 30 min, n=2, read-out: Serum stability (% of intact ligand)) of 99.9% and a remaining at 1 h ([1]; 60 min, n=2, read-out: Serum stability (% of intact ligand)) of 99.9%. For the same molecule, the “Serum stability (% of intact ligand)” value ([1]; 120 min, n=2) was 99.9 ± 0%, the fraction unbound at 2 min, 5 MBq/mL ([2]; 2 min) was 0.82 and the fraction unbound at 30 min, 5 MBq/mL ([2]; 30 min) was 0.798. For the same molecule, the fraction unbound at 60 min, 5 MBq/mL ([2]; 60 min) was 0.831, the fraction unbound ([2]; 120 min) was 0.857 ± 0.126 and the logD [3] was -3.52 ± 0.03. For the same molecule, the “activity accumulation in the liver (in words)” value ([4]; BALB/c mice, comparison with ^99mTc-GSA) was “low accumulation”, the tissue uptake at 10 min [4, 5] was 3.64 ± 0.08 %ID/g and the tissue uptake at 0.5 h [4, 5] was 1.6 ± 0.17 %ID/g. The tissue uptake at 1 h [4, 5] was 0.27 ± 0.01 %ID/g, the tissue uptake at 10 min [4, 6] was 0.89 ± 0.32 %ID/g and the tissue uptake at 0.5 h [4, 6] was 0.39 ± 0.02 %ID/g. The tissue uptake at 1 h [4, 6] was 0.11 ± 0.01 %ID/g, the tissue uptake at 10 min [4, 7] was 1.41 ± 0.01 %ID/g and the tissue uptake at 0.5 h [4, 7] was 0.63 ± 0.04 %ID/g. The tissue uptake at 1 h [4, 7] was 0.15 ± 0.01 %ID/g, the tissue uptake at 10 min [4, 8] was 1.24 ± 0.26 %ID/g and the tissue uptake at 0.5 h [4, 8] was 1.13 ± 0.02 %ID/g. For the same molecule, the tissue uptake at 1 h [4, 8] was 1.04 ± 0.26 %ID/g, the tissue uptake at 10 min [4, 9] was 7.56 ± 1.35 %ID/g and the tissue uptake at 0.5 h [4, 9] was 4.99 ± 0.02 %ID/g. For the same molecule, the tissue uptake at 1 h [4, 9] was 1.99 ± 0.34 %ID/g, the tissue uptake at 10 min [4, 10] was 9.45 ± 1.58 %ID/g and the tissue uptake at 0.5 h [4, 10] was 9.44 ± 1.99 %ID/g. For the same molecule, the tissue uptake at 1 h [4, 10] was 9.19 ± 0.27 %ID/g, the tissue uptake at 10 min [4, 11] was 2.56 ± 0.17 %ID/g and the tissue uptake at 0.5 h [4, 11] was 1.15 ± 0.11 %ID/g. For the same molecule, the tissue uptake at 1 h [4, 11] was 0.47 ± 0.06 %ID/g, the tissue uptake at 10 min [4, 12] was 0.9 ± 0.05 %ID/g and the tissue uptake at 0.5 h [4, 12] was 0.4 ± 0.04 %ID/g. For the same molecule, the tissue uptake at 1 h [4, 12] was 0.12 %ID/g, the tissue uptake at 10 min [4, 13] was 0.97 ± 0.04 %ID/g and the tissue uptake at 0.5 h [4, 13] was 0.44 %ID/g. The tissue uptake at 1 h [4, 13] was 0.17 ± 0.01 %ID/g, the tissue uptake at 10 min [4, 14] was 1 ± 0.01 %ID/g and the tissue uptake at 0.5 h [4, 14] was 0.42 ± 0.02 %ID/g. It also gave a tissue uptake at 1 h [4, 14] of 0.16 %ID/g, a tissue uptake at 10 min [4, 15] of 1.55 ± 0.24 %ID/g and a tissue uptake at 0.5 h [4, 15] of 0.88 ± 0.09 %ID/g. The tissue uptake at 1 h [4, 15] was 0.31 ± 0.05 %ID/g.
